The record followed here is US9533969B2, “Materials and method for inhibiting replication protein A and uses thereof” (Indiana University Research and Technology Corp., priority 2010, dated 2017).

The structures appear in SMILES notation. “And” between values parts separate entries of the source, which are not always exact repeats. Equal values may be shown once.

The target in data set [1] is Human RPA (Homo sapiens (Human), UniProt P27694). In words: EMSA of inhibition of RPA binding to ssDNA. The note with it: 25 nM RPA, 34-base DNA, 4 parameter logistic fit, read-out: IC50 (μM) In vitro. The procedure:
Small molecule inhibitors were obtained from ChemDiv and resuspended in DMSO. Compound TDLR-505 was independently synthesized and structure confirmed by mass spectrometry analysis. Human RPA was purified using an E. coli over expression system as previously described (7). EMSAs were performed in 20 μL reactions containing 25 nM RPA, 25 nM 5′[^32P]-labeled 34-base […] DNA as previously described (7). The final concentration of DMSO was 1%.
(§1) Referring now to TABLE 1, the in vitro IC50 was determined by EMSA analysis as described in FIG. 1A. The cellular IC50 value was determined by treating H460 cells with the indicated compounds and analyzing annexinV/PI staining as described in Methods. The in vitro and cellular data was analyzed using standard 4 parameter logistic-curve. The IC50 values and standard error of the fit were determined from this analysis.
Referring now to FIGS. 2C, D and E, EMSA analysis of compound TDLR-505, briefly, increasing concentrations of compound TDRL-505 were pre-incubated with RPA and DNA binding activity was assessed via EMSA using a 34-base ssDNA substrate. Referring now to FIG. 2D, the average and standard deviation of each point are presented. The data was fit to a standard 4 parameter logistic curve with an N=4.

The subject of data set [2] is H460 NSCLC cell line. In words: Annexin V/PI flow cytometry, induction of cell death. In kind it is cell-based, human. The note with it: Homo sapiens, NCI-H460; H460 cells, 48 hour exposure, annexinV/PI staining; read-out: IC50 (μM) Cellular. The procedure:
H460 cells were analyzed for apoptosis using an Annexin V-FITC/Propidium iodide (PI) Vybrant Apoptosis Assay Kit (Invitrogen), according to manufacturer's instructions. Cells were plated at a density of 1×10^4 cells per cm^2 and allowed to adhere for 24 hours and then treated with compound TDLR-505 for 48 hours. Following plating and treatment of H460 cells as described above, adherent and non-adherent cells were collected, processed, and analyzed on a BD FACScan flow cytometer. Data was analyzed using WinMDI software (http://facs.scripps.edu/software.html). Cell cycle analysis was performed by PI staining Briefly, cells were plated and treated with compound collected and then washed twice with PBS-EDTA supplemented with 1% BSA. Cells were fixed in 70% EtOH at −20° C. while vortexing followed by incubation on ice for 30 minutes. Cells were then collected and stained with PI solution (10 μg/mL PI and 25 μg/mL RNaseA in PBS-EDTA supplemented with 1% BSA). Cells were analyzed on a Becton Dickinson FACScan flow cytometer. Cells were gated and analyzed on a histogram with events plotted against the FL2-A parameter. Cell cycle distribution was analyzed using ModFit software. G2 arrest was induced by treatment with 0.8 μg/mL nocodazole for 12 hours (10). Cells were then washed with PBS and treated with either vehicle or compound TDLR-505 (100 μM). Cells were harvested and analyzed for cell cycle distribution as described above.
as §1
Referring now to FIGS. 4A, 4B, 4C and 4D, the effects of compound TDRL-505 on induction of cell death and cell cycle progression in a H460 NSCLC cell line was measured. Briefly, H460 cells were treated with compound TDRL-505 for 48 hours and analyzed for cell viability via staining with AnnexinV/PI and presented as dot plots (see FIG. 3A). Referring now to FIG. 4B, the data from FIG. 4A was quantified and the percentage of Annexin-/PI-cells (lower left quadrant), indicating live cells, was calculated. The average±SD (N=4) are presented and the data was fit to a 4-parameter logistic curve.

In data set [3] the test system is H460 NSCLC cell line. Description: Crystal violet staining cell viability assay. The format is cell-based. To be noted: Homo sapiens, NCI-H460; data not shown.
Data set [4] relates to peripheral blood mononuclear cells (PBMCs). Description: Cytotoxicity in freshly isolated PBMCs. The format is cell-based. To be noted: non-cancerous cells, data not shown.
Data set [5] deals with NOD/SCID mice. To be noted: mouse, in vivo. As for the experimental part:
Mice were monitored for signs of overt toxicity and bodyweights measured three times per week. Mice were sacrificed and gross necroscopy performed to assess organ weights and inspected for signs of toxicity. […] NOD/SCID mice were then implanted with 5×10^6 H460 cells in 0.2 ml of 50% Matrigel subcutaneously. Tumors were allowed to develop for 7 days and TDRL-505 was administered via oral gavage 2× per week for one week. Tumor volumes were calculated by measuring the width and the length of the tumors and using these measurements in the equation: vol.=1×w^2/2.
Referring now to Table 3. […] Oral dosing in 0.1% Tween 80/methylcellulose was also well tolerated up to 800 mg/kg.

The nature of data set [6]: Pharmacokinetic analysis in mice. The format is in vivo. To be noted: for AUC(0-t) / Cmax / Tmax / half-life: mouse, serum. As for the experimental part: Pharmacokinetic analysis. TDRL-505 was administered to mice at 200 mg/kg either ip or po and blood drawn at 1, 2, 4, 8, 24 and 48 hours post treatment. Serum concentration of TDRL-505 was measured using a HPLC MS/MS protocol and PK parameters analysis using on-compartmental analysis.
Based on the in vivo anticancer activity of TRL-505 a comparison of pharmacokinetic parameters with both ip and po dosing regimens was made. Naive mice were given a single dose and as described in Table 3, blood was drawn at various time intervals and TRDL-505 concentration determined via a HPCL/MSMS protocol developed for this compound.

Where [7] appears, read: 200 mg/Kg PO, Methylcellulose/DMSO.

Human RPA, sequence (P27694 whole entry): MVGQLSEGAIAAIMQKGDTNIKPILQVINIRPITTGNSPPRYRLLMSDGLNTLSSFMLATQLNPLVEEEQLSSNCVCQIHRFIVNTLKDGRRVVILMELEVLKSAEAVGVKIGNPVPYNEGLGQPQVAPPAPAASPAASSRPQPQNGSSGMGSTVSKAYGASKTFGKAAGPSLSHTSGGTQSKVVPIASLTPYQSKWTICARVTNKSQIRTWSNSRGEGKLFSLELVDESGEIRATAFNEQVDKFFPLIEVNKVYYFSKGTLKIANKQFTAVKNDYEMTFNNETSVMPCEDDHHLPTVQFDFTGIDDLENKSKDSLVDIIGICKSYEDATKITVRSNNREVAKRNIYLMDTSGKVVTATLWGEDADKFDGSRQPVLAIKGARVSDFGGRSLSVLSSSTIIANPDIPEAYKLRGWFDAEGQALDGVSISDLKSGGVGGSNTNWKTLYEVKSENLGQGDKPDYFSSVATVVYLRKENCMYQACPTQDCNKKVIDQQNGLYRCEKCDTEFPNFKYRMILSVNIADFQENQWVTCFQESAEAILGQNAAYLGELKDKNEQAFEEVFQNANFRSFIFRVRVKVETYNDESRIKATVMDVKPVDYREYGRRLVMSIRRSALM
Human RPA, sequence (P15927 whole entry partner): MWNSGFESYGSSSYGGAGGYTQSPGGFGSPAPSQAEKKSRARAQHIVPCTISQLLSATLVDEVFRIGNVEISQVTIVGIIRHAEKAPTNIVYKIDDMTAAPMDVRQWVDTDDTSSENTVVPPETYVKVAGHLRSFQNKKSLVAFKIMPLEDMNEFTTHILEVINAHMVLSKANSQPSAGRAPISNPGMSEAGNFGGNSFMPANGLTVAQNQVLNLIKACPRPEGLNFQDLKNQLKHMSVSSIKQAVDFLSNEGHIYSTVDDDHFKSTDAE
Human RPA, sequence (P35244 whole entry partner): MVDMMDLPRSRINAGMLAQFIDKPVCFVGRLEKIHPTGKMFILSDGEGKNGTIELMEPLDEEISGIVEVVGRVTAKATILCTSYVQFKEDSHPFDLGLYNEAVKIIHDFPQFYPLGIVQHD

For `CCOc1ccc2cc(C3CC(c4ccc(Br)cc4)=NN3C(=O)CCC(=O)O)c(Cl)nc2c1` (stereo not drawn) [TDRL-505], in data set [1], the IC50 was 13 µM and 12.9 µM. Moreover, in data set [2], the IC50 amounted to 30.8 ± 1.7 µM. In data set [3], this compound came in with an IC50 of 64 µM. Moreover, in data set [4], the “cytotoxic activity in PBMCs (in words)” value is reported as “minimal cytotoxic activity”. Further, the “well tolerated dose, IP” value in data set [5] (ip) was “up to 400 mg/kg”. The “well tolerated dose, oral” value in data set [5] (po) is given as “up to 800 mg/kg”. In addition, in data set [6] (200 mg/Kg IP, Tween80/DMSO), the Cl/F is 8.29 mL/h, the Vdss was 0.11 L, the AUC(0-t) amounted to 577 µg·h/mL and the peak level (Cmax) was 31700 ng/mL. Besides, in data set [6] (200 mg/Kg IP, Tween80/DMSO), the Tmax amounted to 8 h and the half-life was 428 min. In data set [6] (setting [7]), this compound had a Cl/F of 202.33 mL/h, a Vdss of 0.88 L, an AUC(0-t) of 25 µg·h/mL and a Cmax of 6400 ng/mL. In data set [6] (setting [7]), the Tmax stood at 1 h and the half-life is 157 min.
